{"source": "patent US20110021575A1", "about": "“PENETRATION ENHANCERS FOR INSECTICIDAL AGENTS” (priority 2006, published 2011)", "test": "Penetration test: penetration of active substance through enzymatically isolated apple leaf cuticles in diffusion cells", "format": "in vitro ADME, apple trees of the Golden Delicious variety", "conditions": "cuticular penetration of imidacloprid, at 20° C., 60%, imidacloprid 0.3 g/l (ai alone) or 0.2 g/l (with surfactant), mean values of 5-8 repetitions", "method": "In this test, the penetration of active substances through enzymatically isolated cuticles of apple tree leaves was measured.\nLeaves which were cut off in the stage of full development of apple trees of the Golden Delicious variety were used. The isolation of the cuticles was effected in a manner such that • first leaf discs marked on the underside with dye and punched out were filled by means of vacuum infiltration with a pectinase solution (0.2 to 2% strength) buffered to a pH between 3 and 4, • sodium azide was then added and • the leaf discs thus treated were allowed to stand until disintegration of the original leaf structure and detachment of the noncellular cuticle.\nThereafter, only those cuticles of the upper sides of the leaves which were free of staltoa and hairs were further used. They were washed several times alternately with water and a buffer solution at pH 7. The clean cuticles obtained were finally drawn onto small Teflon plates and smoothed and dried with a gentle air jet.\nIn the next step, the cuticle membranes thus obtained were placed in stainless steel diffusion cells (=transport chambers) for membrane transport investigations. For this purpose, the cuticles were placed by means of forceps centrally on the silicone grease-coated edges of the diffusion cells and closed with a likewise greased ring. The arrangement was chosen so that the morphological outside of the cuticles faced outwards, i.e. towards the air, while the original inside faced the interior of the diffusion cell. The diffusion cells were filled with water or with a mixture of water and solvent. […]\nAfter the application of the spray liquors, in each case the water was allowed to evaporate, and in each case the chambers were then turned around and were placed in thermostated trays, air having a defined temperature and atmospheric humidity being blown onto the outside of the cuticle. […] The active substance penetration was measured with radioactively marked active substance."}
{"smiles": "O=[N+]([O-])NC1=NCCN1Cc1ccc(Cl)nc1", "note": "[Imidacloprid (ai), imidacloprid]", "values": [{"measurement": "Penetration after 5 hours", "setting": "after 5 hours", "result": 0.1, "unit": "%"}, {"measurement": "Penetration after 1 day", "setting": "after 1 day", "result": 0.3, "unit": "%"}, {"measurement": "Penetration after 2 days", "setting": "after 2 days", "result": 0.5, "unit": "%"}]}
